Assay [1] deals with Th17 differentiation of CD4+ CD25− T cells. Nature of the assay: Th17 differentiation (IL-17+ IFNγ− cells) of T cells activated with TGFβ plus IL-6. In kind it is cell-based, mouse. As for the experimental part:
Low doses of halofuginone (HF) were tested to determine the ability of HF to enhance Treg differentiation, while suppressing Th17 differentiation. Nave. CD4+ T cells (CD4+ CD25−) were isolated from the spleen and peripheral lymph nodes of C57B/6 mice. T cells were then activated using anti-CD3 (0.3 μg/ml) and anti-CD28 (0.5 μg/ml) antibodies either in media alone (row 1, 4), TGFβ alone (3 ng/ml—row 2, 5) or TGFβ (3 ng/ml) plus IL-6 (30 ng/ml) (row 3, 6). […] T cells were cultured for 3 days and CD25 and Foxp3 expression (Treg marker genes) was determine by FACS staining and flow cytometric analyses. Simultaneously, T cells were harvested and re-stimulated for 4 hours using phorbol myristic acetate (PMA; 10 nM), Ionomycin (1 μM) and cytokine secretion was prevented using brefeldin A (20 μg/ml). Following stimulation, the production of IL-17 and IFNγ were determined by intracellular staining and analyzed via flow cytometry.
The dose-response of HF on CD4+ T cell proliferation, activation (i.e. CD25 upregulation) and differentiation to Th1, Th2 and Th17 lineages were evaluated. Purified murine naïve CD4+ CD25− T cells were activated using anti-CD3 (0.3 μg/ml) and anti-CD28 (0.5 μg/ml) antibodies and varying amounts of HF was added to each T cell culture condition (1.25 nM-40 nM). CD4+ T cell proliferation was monitored by CFSE dilution on day 3-post activation and CD25 expression was evaluated by FACS staining 2 days after activation. For T cell differentiation experiments, naïve T cells were activated as above in the presence of Th1 (IL-12 (20 ng/ml) plus anti-IL-4 (10 μg/ml)), Th2 (IL-4 (50 ng/ml) plus anti-IFNγ (0.5 mg/ml)) or Th17 (TGFβ (3 ng/ml) plus IL-6 (30 ng/ml)) polarizing conditions plus titrating amounts of HF (1.25 nM-40 nM) or MAZ1310 (40 nM). The percentage of Th17 cells, (IL-17^+ IFNγ^−) was evaluated on day 3 following activation, whereas the abundance of Th1 cells (IFNγ^+ IL-4) and Th2 cells (IL-4^+ IFNγ^−) was determined 5 days following activation. All cytokine expression was determined by intracellular staining following PMA+Ionomycin+Brefeldin A re-stimulation and all data was normalized to control (MAZ1310)-treated cells. […] Biol., vol. 80:1-8 (2006).
Cytokines, antibodies and T cell culture: Purified CD4^+ CD25^− T cells were activated in vitro as previously described (I. M. Djuretic et al., Nat Immunol 8, 145 (2007)) using 0.3 μg/ml hamster anti-mouse CD3 (clone 145-2C11) (ATCC—Manassas, Va.) and 0.5 μg/ml hamster anti-mouse CD28 (BD Pharmingen, San Jose, Calif.). Activated cell cultures were differentiated using the following combinations of cytokines and antibodies: iTreg=recombinant human TGFβ1 (3 ng/ml; R&D systems, Minneapolis, Minn.), Th17βTGFβ1 (3 ng/ml) plus recombinant mouse IL-6 (30 ng/ml, R&D systems). Th1 and Th2 differentiation was performed as previously described. (I. M. Djuretic et al., Nat Immunol 8, 145 (2007)). Human IL-2 supernatant (National Cancer Institute) was used in culture at 0.01 U/ml and was added at 48 hours-post activation when T cells were split into tissue culture wells lacking CD3 and CD28 antibodies, with the exception of Th17 cultures that were maintained in the absence of IL-2. All reagents were added at the time of T cell activation and again at 48-hours post activation unless indicated otherwise. For some experiments, purified CD4^+ CD25^− T cells, CD8^+ T cells or B cells were labeled with 1 μM CFSE (Invitrogen) prior to activation in accordance with manufacturers instructions.
Detection of cytokine production: Cytokines secreted into media supernatant were measured using the mouse Th1/Th2 cytometric bead array (CBA, BD Pharmingen) in accordance with manufacturers instructions.

The test system of assay [2] is AAR pathway in splenocytes. Nature of the assay: In vivo activation of the AAR pathway in splenocytes of HF-injected mice. The conditions noted are these: 2.5 μg HF i.p., 6 hours post injection. Details: species or system C57B/6 mice. As to the method:
FIG. 20A is a graph depicting splenocytes from control- and HF-treated mice. C57B/6 mice were injected i.p. with vehicle (DMSO) or 2.5 μg HF. Spleens were harvested 6 hours post injection, red blood cells were lysed and total splenocytes were counted. Data are presented as mean cell counts±SD from 2 mice per group.
FIG. 20C is a graph depicting eIF2α expression in control- and HF-treated mice. Splenocytes from mice injected with DMSO or HF as above were harvested 6 hours post injection. Red blood cells were lysed and immunoblotting was performed on whole cell extracts for phosphorylated or total eIF2α as indicated.
FIG. 20D is a graph depicting the results of quantitative real-time PCR (qPCR) experiments performed for AAR-associated gene expression (Asns, Gpt2, eIF4Ebp1) using cDNA generated from splenocytes of mice injected with DMSO or HF as above. Expression of AAR-associated genes were normalized to Hprt levels and data are presented as mean relative expression from duplicate samples±SD.
Studies were conducted to evaluate the effect of HF treatment in mice.

“And” between values parts separate entries of the source, which are not always exact repeats. Equal values may be shown once.

Regarding `O=C(CC1NCCCC1O)Cn1cnc2cc(Br)c(Cl)cc2c1=O` (racemic) [HF, 7-bromo-6-chloro-3-[3-(3-hydroxy-2-piperidinyl)-2-oxopropyl]-4(3H)-quinazolinone], in assay [1] (10 nM HF added at indicated times after activation), the “time of addition giving most pronounced inhibition of IL-17 expression, in words” value was “most pronounced when HF was added during a 12-hour window at the start of the culture period”. The “effect on Il17 and Il17f mRNA expression, in words” value in assay [1] (10 nM HF, 4 days, Th17 cytokine conditions) is “impaired expression of both Il17 and Il17f mRNA”. Besides, the “IL-17 expression in T cells lacking Foxp3, in words” value in assay [1] (10 nM HF, Foxp3 KO naïve CD4+ T cells, TGFβ plus IL-6) is “strongly repressed IL-17 expression”. Also, the “Th17 differentiation of T cells expressing STAT3C, in words” value in assay [1] (10 nM HF, STAT3C-GFP+ cells) is “remained capable of differentiating into Th17 cells”. In assay [1] (5-10 nM HF, TAT-Cre treated T cells), the “Th17 differentiation of cells expressing YFP or no transgene, in words” value is listed as “strongly impaired”. Further, the “fold lower doses for effects on Th17 differentiation versus general inhibition of T-cell proliferation and Th1/Th2 differentiation” value in assay [1] (FIG. 7) was 5- to 10 fold and ~10 fold. Moreover, the “Th17 differentiation in T cells transduced with RORγt-expressing versus empty retroviruses, in words” value in assay [1] (MIG.RORγt vs MIG) was “inhibited Th17 differentiation as effectively”. In assay [1] (Mus musculus, T-cell, in vitro, read-out: concentration for 50% inhibition of Th17 cell development), the IC50 is ~3 nM. Besides, the “concentration window of specific inhibition of Th17 differentiation” value in assay [1] (exogenously added HF, TGFbeta in the presence of IL-6) lay within 2 to 30 nM. The “eIF2α phosphorylation and AAR-associated gene expression in splenocytes, in words” value in assay [2] was “rapidly activates eIF2α phosphorylation and AAR-associated gene expression”.

The record behind these values is patent publication US20110212100A1, “METHODS FOR MODULATING DEVELOPMENT AND EXPANSION OF IL-17 EXPRESSING CELLS” (priority 2007, published 2011).
